Each structure is given as a SMILES string.

As for `O=C(O)c1ccc(Cl)cc1Oc1cccc(C(F)(F)F)c1`, the melting point (commonly the temperature of the solid-liquid transition) was 146 °C.

On to `O=c1[nH]c2cc(Cl)ccc2n1C1CCN(CCCNc2ccccc2[N+](=O)[O-])CC1`, for which the melting point was determined as 220 °C.

With `NCCC(O)(c1ccc(Cl)cc1)c1ccc(-c2ccc(Br)cc2)cc1` (stereo not drawn), the melting point was 154 to 155 °C.

For the compound `CN(CC(=O)[C@H](Cc1ccccc1)NC(=O)N1CCCCC1)C(=O)N1CCC[C@H]1C(=O)O`, the melting point lay within 69 to 72 °C.

Take `COC(=O)c1nc(-c2ccc(Cl)c(OC)c2F)c(F)c(N)c1SC`: the melting point lay in the range of 113 to 117 °C.

Consider `CCCc1nn(-c2ccc(C(F)(F)F)cn2)cc1CCCOc1cc(CCC(=O)O)cc(OC)c1`, for which the melting point is 98 to 99 °C.

Regarding `O=C1c2ccccc2C(=O)N1CCN1CCC(c2noc3cc(F)ccc23)CC1`, the melting point lay within 143 to 145 °C.

Take `Oc1cc(Cl)cc(Br)c1O`: the melting point lay in the range of 71 to 73 °C.

Consider `Nc1ccc(NCCc2ccccc2)c(S(=O)(=O)CCO)c1`, for which the melting point came out at 197 °C.

Compound `CCOCc1nc2c(N)nc3cc(-c4cccnc4)ccc3c2n1CC1CCN(C(=O)OC(C)(C)C)CC1` yielded a melting point of 197 to 198 °C.

As for `ClCC1(CCl)Cc2cccc3cccc1c23`, the melting point lay within 212 to 213 °C.

The compound `CS(=O)(=O)Oc1cc(CC(=O)O)on1` yielded a melting point of 101 to 103 °C.

As for `O=C(O)C(=O)CC(=O)c1cccn1Cc1ccccc1-c1ccccc1`, the melting point fell in the range of 150 to 152 °C.

`O=S(Cc1[nH]c2ccccc2c1Sc1ccccc1)c1ccccc1` (stereo not drawn) showed a melting point of 71 to 74 °C.

On to `Fc1cccc(F)c1C1=NC(c2ccccc2Br)CCS1` (stereo not drawn), for which the melting point was 136 to 138 °C.

`O=[N+]([O-])c1ccc(F)cc1OC1C=CCC1` (stereo not drawn) showed a melting point of 50.5 to 51 °C.

In the case of `COc1cc(Nc2c(C#N)cnc3cc(Br)ccc23)c(Cl)cc1F`, the melting point lay within 200 to 202 °C.

Regarding `COc1cc(C(=O)O)cc(Cl)c1Cl`, the melting point lay in the range of 218 to 219 °C.

`Cc1ccc(N2C(=O)c3ccccc3C2=O)nn1`: the melting point came out at 214 °C.

In turn, `CC(=O)Nc1ccc(OCC(F)(F)F)cc1[N+](=O)[O-]` displayed a melting point of 117 to 118 °C.

`Cc1ccccc1C(CCC(=O)O)Oc1cc(OCc2ccsc2)ccc1-c1cc(C(=O)O)on1` (racemic) returned a melting point of 162 to 164 °C.

`C[C@H](C#Cc1sccc1COCc1ccc(F)cc1)N(O)C(N)=O` displayed a melting point of 94 to 95 °C.

As to `CCOC(=O)C1=C(N2CCCCC2)N=C(C)C(C(=O)OCC)C1c1ccccc1C#N` (stereo not drawn), the melting point came out at 103 °C.

`Cc1cccc(C(=O)c2[nH]c3cc(Cl)ccc3c2CC(=O)O)c1` returned a melting point of 182 to 184 °C.

`CS(=O)(=O)c1ccc(-c2cnn(-c3cccc(Cl)c3)c(=O)c2Cl)cc1` returned a melting point of 203 to 204 °C.

On to `COC(=O)C=Cc1cncn1Cc1ccccc1`, for which the melting point fell in the range of 137 to 139 °C.

Compound `OCc1ccc(OCc2ccc3ccccc3n2)cc1` registered a melting point of 131 to 135 °C.

In turn, `ON=C1c2cc(Cl)ccc2-n2cccc21` showed a melting point of 211 °C.

As for `CN(C)S(=O)(=O)c1cccc2c1Sc1ccc(O)cc1N2CCCN1CCC(CCO)CC1`, the melting point fell in the range of 163 to 165 °C.

In turn, `Cc1cc(Br)cnc1CCCCNc1ncc(Cc2ccc(O)cc2)c(=O)[nH]1` showed a melting point of 232 to 234 °C.

In the case of `COc1ccnc(CCc2nc3cc(-c4ccc5[nH]ccc5c4)cnc3[nH]2)c1`, the melting point fell in the range of 241 to 242 °C.

For the compound `COc1ccc(N2CCOCC2)c2sc(C(N)=O)nc12`, the melting point was in the range of 228 to 230 °C.

`O=[N+]([O-])c1cc2cc(Cl)ccc2nc1Cl` gave a melting point of 190 °C.

For `O=C(O)c1ccn2c1CSC2c1cccnc1` (single isomer, unassigned; (+)), the melting point stood at 154 °C.

Consider `COc1ccc([N+](=O)[O-])c(N(C)C(=O)OC(C)(C)C)c1`, for which the melting point lay within 122 to 124 °C.

Compound `CC(=O)OCC1OC(n2c(Cl)nc3c(Br)c(Br)ccc32)C(OC(C)=O)C1OC(C)=O` (stereo not drawn) yielded a melting point of 129 to 130 °C.

With `C#CCCCOc1cc(C=O)ccc1OC`, the melting point lay in the range of 73 to 74 °C.

On to `CC(=O)NCCCc1ccc(OC2CCc3cc(Cl)ccc32)cc1` (stereo not drawn), for which the melting point was in the range of 111 to 112 °C.

`ON=Cc1ccc(N2CCC3(CC2)OCCO3)cc1` registered a melting point of 151 to 152 °C.

`CC(=O)OC1CSC(Sc2ccc(S(=O)(=O)c3ccccc3)cc2)C(OC(C)=O)C1OC(C)=O` (stereo not drawn) registered a melting point of 159 °C.

Compound `CSc1nc2c(NCc3ccccc3)nc(NCCCO)nc2n1C(C)C` displayed a melting point of 64 to 67 °C.

`Cc1cc(C)n(CCOc2cc3c(cc2C)OC2(CC(C)(C)c4cc(O)c(C)cc4O2)CC3(C)C)n1` (stereo not drawn) returned a melting point of 223 to 225 °C.

`CSC1Oc2cc3ccccc3cc2C1=O` (stereo not drawn) registered a melting point of 118 to 120 °C.

For the compound `COc1cc2c(cc1OC)SCCC(C(=O)N1CCN(C(=O)c3cc(OC)c(OC)c(OC)c3)CC1)=C2`, the melting point was 113 °C.

As to `O=C(O)c1cc(Cl)cc(Oc2cccc(C(F)(F)F)c2)n1`, the melting point was 81 to 82 °C.

The compound `CCCCN1CCN2c3ccc(C)cc3C(c3ccco3)=[N+]([O-])CC2C1` (stereo not drawn) registered a melting point of 104 to 106 °C.

For the compound `CN(CCNCc1c(O)c(Br)cc2c1CCC2(C)C)CCNC(=O)c1nc(Cl)c(N)nc1N`, the melting point lay within 134 to 136 °C.

Take `CC(O)=C(C#N)C(=O)Cc1ccc(Cl)cc1`: the melting point was in the range of 50 to 53 °C.

The compound `NC(=O)NN=Cc1ccc(Oc2ccncc2)cc1` yielded a melting point of 212 to 213 °C.

Consider `NS(=O)(=O)NC[C@H]1COc2cc(Cl)c(Cl)cc2O1`, for which the melting point fell in the range of 119 to 121 °C.

As to `O=C(O)c1ccc(OCc2ccccc2CCc2ccccc2)cc1`, the melting point fell in the range of 178 to 180 °C.

In the case of `O=C1c2cc3nnn(Cc4nc5ccccc5s4)c(=O)c3cc2OC2CCCN12` (stereo not drawn), the melting point was in the range of 224 to 227 °C.

As to `OC(c1ccc(Br)cc1)(c1ccc(Br)cc1)c1cncnc1`, the melting point fell in the range of 89 to 90 °C.

For `O=C(O)C(CC1CCCCC1)NC(=O)C(CS)C(F)(F)F` (stereo not drawn), the melting point lay in the range of 116 to 118 °C.

For the compound `COCOc1ccccc1-c1cc(-c2ccccc2C(=O)OC)c(C#N)c(NC(=O)c2cccs2)n1`, the melting point fell in the range of 190 to 191 °C.

The compound `COc1ccc(/C=C(\C#N)c2ccc([N+](=O)[O-])cc2)cc1OC1CCCC1` returned a melting point of 186 to 187 °C.

Consider `CC(C)CN1C(=O)C(NC(=O)c2cc3ccccc3[nH]2)N=C(N2CCCCCC2)c2ccccc21` (single isomer, unassigned; (-)), for which the melting point fell in the range of 240 to 241 °C.

In turn, `CCCC1=C(C#N)C(c2ccccc2Cl)c2c(n[nH]c2-c2ccccc2OC)N1` (stereo not drawn) yielded a melting point of over 270 °C.

For the compound `C=CC1(F)CN(C2CCCC2)c2nc(Nc3ccc(C(=O)NN4CCN(C)CC4)cc3OC)ncc2N(C)C1=O` (stereo not drawn), the melting point lay within 253 to 263 °C.

With `CCOC(=O)c1cnc(S(=O)Cc2ccccc2)n1-c1c(CC)cccc1CC` (stereo not drawn), the melting point was in the range of 82 to 83 °C.

As to `CNC(=S)SCCC(=O)N1CCC[C@H]1C(=O)OC(C)(C)C`, the melting point fell in the range of 129 to 130 °C.

In turn, `O=C1c2ccccc2C(=O)N1CC(Br)(CBr)c1ccccc1` (stereo not drawn) came in with a melting point of 162 to 163 °C.

Compound `O=C1c2c(O)ccc(O)c2C(=O)c2c(NCCN3CCCCC3)ccc(NCCN3CCCCC3)c21` displayed a melting point of 219 to 221 °C.

On to `CCCCN1CCC(n2nc(-c3cc(Cl)cc4c3OCC4)oc2=O)CC1`, for which the melting point came to 134 °C.

In turn, `O=C(c1cc2ccccc2[nH]1)N1CCCCC1` showed a melting point of 213 to 214 °C.

Take `CCOc1cc(C)ccc1NC1CCN(CCCCNC(=O)c2ccc(-c3ccc(C(F)(F)F)cc3)cc2)CC1`: the melting point amounted to 162 °C.

Regarding `O=C(O)COc1cc2c(=O)c3ccccc3oc2cc1Cl`, the melting point lay within 237 to 238 °C.

The compound `CC(C)(C)OC(=O)N1CCN(c2cc(N)nc(N)n2)CC1` registered a melting point of 176 to 179 °C.

The compound `Cn1cc(-c2cccc(N3CCc4c(sc5c4CCCC5)C3=O)c2CO)nc(Nc2cnn(CCO)c2)c1=O` registered a melting point of 198 to 199 °C.

Turning to `CCOC(=O)NC=C(C(=O)OCC)c1ccc(Cl)cc1`, the melting point was 72 °C.

The compound `O=C(O)[C@@H]1C[C@H]1Sc1nc2ccccc2cc1-c1ccccc1` (relative stereo) gave a melting point of 168 to 170 °C.

In turn, `CCCCc1cn(CC(C)(C)C)c(=O)n1Cc1ccc(-c2ccccc2-c2nnn[nH]2)nc1` came in with a melting point of 194 to 195 °C.

Compound `COC(=O)C1Cc2c([nH]c3ccccc23)C(c2ccc3c(c2)OCO3)N1C(=O)CCl` (stereo not drawn) yielded a melting point of 207 to 208 °C.

For `c1ccc(-c2ccc(Nc3nc4ccccc4o3)cc2)cc1`, the melting point lay in the range of 213 to 214 °C.

Consider `NCc1cccc(Nc2ncnc3[nH]cc(C(=O)c4ccccc4)c23)c1`, for which the melting point is 210 to 212 °C.

In turn, `CNS(=O)(=O)c1cn(C)c2cc(Cl)ccc2c1=O` showed a melting point of 220 to 223 °C.

As to `CN(C)c1nc2sc3c(NCc4ccco4)ncnc3c2c2c1CC(C)(C)C2`, the melting point is 217 °C.

`Brc1ccc2oc(Cc3cccs3)cc2c1` had a melting point of 84 to 86 °C.

Compound `CCC(O)(c1ccc(O)cc1)c1ccc(F)cc1` (stereo not drawn) yielded a melting point of 125 to 126 °C.

`CC1CSc2c(-c3ccccc3)c3ccccc3c(=O)n21` (stereo not drawn): the melting point fell in the range of 204 to 208 °C.

In turn, `CCCCc1nc2c(N)nc3ccc(OCc4ccccc4)cc3c2n1C` had a melting point of 198 to 199 °C.

For `O=C1CCC2=C(CCc3cc(Br)ccc32)N1`, the melting point fell in the range of 227 to 228 °C.

`Cc1ccc(S(=O)(=O)NC(C)C(=O)Cl)cc1` (stereo not drawn): the melting point lay in the range of 101 to 102 °C.

With `CCOC(=O)C1=C(C)NC(C)=C(C(=O)OCC)C1c1ccccc1/C=C/C#N`, the melting point fell in the range of 172 to 173 °C.

Take `CC1(C)CCC(C)(C)c2c(OCc3ccc(F)cc3)cc(C(=O)c3ccc4cc(C(=O)O)ccc4c3)cc21`: the melting point turned out to be 277 °C.

`CC(=O)OC(C)(C)C(=O)Nc1ccc(Sc2ccc(N)cc2)cc1Cl`: the melting point fell in the range of 130 to 132 °C.

Turning to `Oc1ccc2cc(OCCN3CCC(Cc4ccccc4)CC3)ccc2c1`, the melting point fell in the range of 139 to 141 °C.

`COc1cc(-c2nc(-c3ccc(N(C)C)cc3)c(-c3ccc(N(C)C)cc3)[nH]2)cc(OC)c1O` showed a melting point of 258 to 260 °C.

The values are drawn from a melting point compilation (Tetko et al.; mined from patent text by program, amines drawn as free bases though some values may be those of a salt).
